Experimental data as given in patent US6472348B1, “Pyridone derivatives and herbicides” (Kumiai Chemical Industry Co., Ltd., priority 1996, dated 2002).

Assays:
[1] = tested on: barnyardgrass (Ec); assay: Test Example 1: herbicidal effects by paddy field soil treatment; type: in vivo; settings: 100 g of the active ingredient per 10 ares, 21st day after the application, index 0-5 of Table 47;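 also: grade of growth control; 5 = at least 90%; 4 = 70 to 90%; 3 = 50 to 70%; 2 = 30 to 50%; 1 = 10 to 30%; 0 = under 10%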
How it was run: (§1)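 Greenhouse pot test in flooded paddy soil, dosed at 100 g a.i. per 10 ares; effect scored on day 21.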

[2] = tested on: bulrush (Sc); assay: as above; type: in vivo; settings: 100 g of the active ingredient per 10 ares, 21st day after the application, index 0-5 of Table 47;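 also: grade of growth control; 5 = at least 90%; 4 = 70 to 90%; 3 = 50 to 70%; 2 = 30 to 50%; 1 = 10 to 30%; 0 = under 10%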
How it was run: as §1

[3] = tested on: monochoria (Mo); assay: as above; type: in vivo; settings: 100 g of the active ingredient per 10 ares, 21st day after the application, index 0-5 of Table 47;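 also: grade of growth control; 5 = at least 90%; 4 = 70 to 90%; 3 = 50 to 70%; 2 = 30 to 50%; 1 = 10 to 30%; 0 = under 10%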
How it was run: as §1

[4] = tested on: Digitaria ciliaris (Di); assay: Test Example 2: herbicidal effects by upland field soil treatment; type: in vivo; settings: 100 g of the active ingredient per 10 ares, 21st day after the application, index 0-5 of Table 47;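 also: grade of growth control; 5 = at least 90%; 4 = 70 to 90%; 3 = 50 to 70%; 2 = 30 to 50%; 1 = 10 to 30%; 0 = under 10%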
Excerpt: (§2) (Test on Herbicidal Effects by Upland Field Soil Treatment)

[5] = tested on: barnyardgrass (Ec); assay: as above; type: in vivo; settings: 100 g of the active ingredient per 10 ares, 21st day after the application, index 0-5 of Table 47
Excerpt: as §2

[6] = tested on: common lambsquarters (Ch); assay: as above; type: in vivo; settings: 100 g of the active ingredient per 10 ares, 21st day after the application, index 0-5 of Table 47
Excerpt: as §2

[7] = tested on: pale smartweed (Po); assay: as above; type: in vivo; settings: 100 g of the active ingredient per 10 ares, 21st day after the application, index 0-5 of Table 47
Excerpt: as §2

[8] = tested on: rice flatsedge (Ci); assay: as above; type: in vivo; settings: 100 g of the active ingredient per 10 ares, 21st day after the application, index 0-5 of Table 47
Excerpt: as §2

[9] = tested on: slender amaranth (Am); assay: as above; type: in vivo; settings: 100 g of the active ingredient per 10 ares, 21st day after the application, index 0-5 of Table 47
Excerpt: as §2

[10] = tested on: Diaitaria ciliaris (Di); assay: Test Example 3: herbicidal effects by upland field foliage treatment; type: in vivo; design: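 grade of growth control; 5 = at least 90%; 4 = 70 to 90%; 3 = 50 to 70%; 2 = 30 to 50%; 1 = 10 to 30%; 0 = under 10%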; settings: 100 g of the active ingredient per 10 ares, evaluated on the 14th day after treatment
How it was run: (§3)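 Two-week-old greenhouse seedlings, raised in sand-filled pots (120 cm^2) with seed covered by soil, receive a foliar application. Effects are then evaluated by standard grades 14 days later, plants remaining in the greenhouse meanwhile.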

[11] = tested on: barnyardgrass (Ec); assay: as above; type: in vivo; design: scale not given here; settings: 100 g of the active ingredient per 10 ares, evaluated on the 14th day after treatment
How it was run: as §3

[12] = tested on: common lambsquarters (Ch); assay: as above; type: in vivo; design: scale not given here; settings: 100 g of the active ingredient per 10 ares, evaluated on the 14th day after treatment
How it was run: as §3

[13] = tested on: pale smartweed (Po); assay: as above; type: in vivo; design: scale not given here; settings: 100 g of the active ingredient per 10 ares, evaluated on the 14th day after treatment
How it was run: as §3

[14] = tested on: rice flatsedge (Ci); assay: as above; type: in vivo; design: scale not given here; settings: 100 g of the active ingredient per 10 ares, evaluated on the 14th day after treatment
How it was run: as §3

[15] = tested on: slender amaranth (Am); assay: as above; type: in vivo; design: scale not given here; settings: 100 g of the active ingredient per 10 ares, evaluated on the 14th day after treatment
How it was run: as §3

[16] = tested on: cotton (Go); assay: Test Example 4: crop plant selectivity by upland field soil treatment (cotton), phytotoxicity; type: in vivo; design: scale not given here; settings: dose 6.3 g ai/10 a, evaluated 21st day after application
Method: (§4) (Test on Crop Plant Selectivity by Upland Field Soil Treatment)
(§5) In a plastic pot (surface area: 600 cm^2) filled with sand, cotton (Go), Diaitaria ciliaris (Di), green foxtail (Se), pale smartweed (Po), slender amaranth (Am), common lambsquarters (Ch) and China jute (Ab) were sown and covered with soil. […] The plants were then cultured in a green house, and the evaluation of the herbicidal effects and phytotoxicity was conducted on the 21st day after the application in accordance with the standards as identified in Table 47. Symbol—represents “not tested”.

[17] = tested on: China jute (Ab); assay: Test Example 4: crop plant selectivity by upland field soil treatment (cotton), herbicidal effects; type: in vivo; design: scale not given here; settings: dose 6.3 g ai/10 a, evaluated 21st day after application
Method: as §4, §5

[18] = tested on: common lambsquarters (Ch); assay: as above; type: in vivo; design: scale not given here; settings: dose 6.3 g ai/10 a, evaluated 21st day after application
Method: as §4, §5

[19] = tested on: green foxtail (Se); assay: as above; type: in vivo; design: scale not given here; settings: dose 6.3 g ai/10 a, evaluated 21st day after application
Method: as §4, §5

[20] = tested on: pale smartweed (Po); assay: as above; type: in vivo; design: scale not given here; settings: dose 6.3 g ai/10 a, evaluated 21st day after application
Method: as §4, §5

[21] = tested on: slender amaranth (Am); assay: as above; type: in vivo; design: scale not given here; settings: dose 6.3 g ai/10 a, evaluated 21st day after application
Method: as §4, §5

[22] = tested on: soybean (Gl); assay: Test Example 6: crop plant selectivity by upland field soil treatment (soybean), phytotoxicity; type: in vivo; design: scale not given here; settings: dose 6.3 g ai/10a, 21st day after application
Method: as §4
(§6) In a plastic pot (surface area: 600 cm^2) filled with sand, soybean (Gl), Diaitaria ciliaris (Di), green foxtail (Se), Johnsongrass (So), pale smartweed (Po), slender amaranth (Am), common lambsquarters (Ch) and China jute (Ab) were sown and covered with soil. […] The plants were then cultured in a green house, and the evaluation of the herbicidal effects and phytotoxicity was conducted on the 21st day after the application in accordance with the standards as identified in Table 47. Symbol—represents “not tested”.

[23] = tested on: China jute (Ab); assay: Test Example 6: crop plant selectivity by upland field soil treatment (soybean), herbicidal effects; type: in vivo; design: scale not given here; settings: dose 6.3 g ai/10a, 21st day after application
Method: as §4, §6

[24] = tested on: common lambsquarters (Ch); assay: as above; type: in vivo; design: scale not given here; settings: dose 6.3 g ai/10a, 21st day after application
Method: as §4, §6

[25] = tested on: green foxtail (Se); assay: as above; type: in vivo; design: scale not given here; settings: dose 6.3 g ai/10a, 21st day after application
Method: as §4, §6

[26] = tested on: pale smartweed (Po); assay: as above; type: in vivo; design: scale not given here; settings: dose 6.3 g ai/10a, 21st day after application
Method: as §4, §6

[27] = tested on: slender amaranth (Am); assay: as above; type: in vivo; design: scale not given here; settings: dose 6.3 g ai/10a, 21st day after application
Method: as §4, §6

[28] = tested on: corn (Ze); assay: Test Example 7: crop plant selectivity by upland field soil treatment (corn), phytotoxicity; type: in vivo; design: scale not given here; settings: dose 6.3 g ai/10a, 21st day after application
Method: as §4
(§7) In a plastic pot (surface area: 600 cm^2) filled with sand, corn (Ze), green foxtail (Se), pale smartweed (Po), slender amaranth (Am), common lambsquarters (Ch) and China jute (Ab) were sown and covered with soil. […] The plants were then cultured in a green house, and the evaluation of the herbicidal effects and phytotoxicity was conducted on the 21st day after the application in accordance with the standards as identified in Table 47.

[29] = tested on: China jute (Ab); assay: Test Example 7: crop plant selectivity by upland field soil treatment (corn), herbicidal effects; type: in vivo; design: scale not given here; settings: dose 6.3 g ai/10a, 21st day after application
Method: as §4, §7

[30] = tested on: common lambsquarters (Ch); assay: as above; type: in vivo; design: scale not given here; settings: dose 6.3 g ai/10a, 21st day after application
Method: as §4, §7

[31] = tested on: green foxtail (Se); assay: as above; type: in vivo; design: scale not given here; settings: dose 6.3 g ai/10a, 21st day after application
Method: as §4, §7

[32] = tested on: pale smartweed (Po); assay: as above; type: in vivo; design: scale not given here; settings: dose 6.3 g ai/10a, 21st day after application
Method: as §4, §7

[33] = tested on: slender amaranth (Am); assay: as above; type: in vivo; design: scale not given here; settings: dose 6.3 g ai/10a, 21st day after application
Method: as §4, §7

[34] = tested on: wheat (Tr); assay: Test Example 9: crop plant selectivity by upland field foliage treatment (wheat), phytotoxicity; settings: dose 1.6 g ai/10a, 14th day after treatment
How it was run: (§8)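 Read-out: weed control and wheat injury, rated by a defined scoring standard 14 days after foliar application.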

[35] = tested on: China jute (Ab); assay: Test Example 9: crop plant selectivity by upland field foliage treatment (wheat), herbicidal effects; type: in vivo; design: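 grade of growth control; 5 = at least 90%; 4 = 70 to 90%; 3 = 50 to 70%; 2 = 30 to 50%; 1 = 10 to 30%; 0 = under 10%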; settings: dose 1.6 g ai/10a, 14th day after treatment
How it was run: as §8

[36] = tested on: common lambsquarters (Ch); assay: as above; type: in vivo; design: scale not given here; settings: dose 1.6 g ai/10a, 14th day after treatment
How it was run: as §8

[37] = tested on: pale smartweed (Po); assay: as above; type: in vivo; design: scale not given here; settings: dose 1.6 g ai/10a, 14th day after treatment
How it was run: as §8

[38] = tested on: slender amaranth (Am); assay: as above; type: in vivo; design: scale not given here; settings: dose 1.6 g ai/10a, 14th day after treatment
How it was run: as §8

What does the source list for `C#CC(CC)Oc1cc(-c2ccc(C(F)(F)F)n(C)c2=O)c(F)cc1Cl` (racemic) [1-122]?
Herbicidal effects Ec [1]: 5; Herbicidal effects Sc [2]: 5; Herbicidal effects Mo [3]: 5; Herbicidal effects Di [4]: 5; Herbicidal effects Ec [5]: 5; Herbicidal effects Ch [6]: 5; Herbicidal effects Po [7]: 5; Herbicidal effects Ci [8]: 5; Herbicidal effects Am [9]: 5; Herbicidal effects Di [10]: 5; Herbicidal effects Ec [11]: 5; Herbicidal effects Ch [12]: 5; Herbicidal effects Po [13]: 5; Herbicidal effects Ci [14]: 5; Herbicidal effects Am [15]: 5; Phytotoxicity Go [16]: 0; Herbicidal effects Ab [17]: 5; Herbicidal effects Ch [18]: 5; Herbicidal effects Se [19]: 5; Herbicidal effects Po [20]: 5; Herbicidal effects Am [21]: 5; Phytotoxicity Gl [22]: 2; Herbicidal effects Ab [23]: 5; Herbicidal effects Ch [24]: 5; Herbicidal effects Se [25]: 5; Herbicidal effects Po [26]: 5; Herbicidal effects Am [27]: 5; Phytotoxicity Ze [28]: 1; Herbicidal effects Ab [29]: 5; Herbicidal effects Ch [30]: 5; Herbicidal effects Se [31]: 5; Herbicidal effects Po [32]: 5; Herbicidal effects Am [33]: 5; Phytotoxicity Tr [34]: 2; Herbicidal effects Ab [35]: 5; Herbicidal effects Ch [36]: 5; Herbicidal effects Po [37]: 5; Herbicidal effects Am [38]: 5
